Our source for the IC50 values is patent US20250289789A1, “REVERSIBLE LYSINE COVALENT MODIFIERS OF CDK2 AND USES THEREOF” (Terremoto Biosciences, Inc., priority 2023, published 2025).

Where only a bound is given, the exact number is not on record here.

Holding throughout (type): cell-based
Test [1] deals with T1, CDK2-NanoLuc fusion with CCNE1 in 293T or 293 cells (Homo sapiens, UniProt P24941).
T1 construct: host or cells: 293T (ATCC CRL-3216) or 293 (ATCC CRL-1573)
As to the kind of experiment: NanoBRET Target Engagement (TE) Intracellular Kinase Assay, CDK2/CCNE1. The settings on record: NanoBRET TE intracellular kinase assay, 2-hour incubation, read-out: NanoBRET-CDK2/E1 IC50. Background: BRET reads energy transfer from a luciferase to a nearby fluorophore.

Test [2] has as its target T2, CDK4-NanoLuc fusion with CCND1 in 293T or 293 cells (Homo sapiens, UniProt P11802).
T2 construct: host or cells: 293T (ATCC CRL-3216) or 293 (ATCC CRL-1573)
Briefly: NanoBRET Target Engagement (TE) Intracellular Kinase Assay, CDK4/CCND1. The following applies: NanoBRET TE intracellular kinase assay, 2-hour incubation, read-out: NanoBRET-CDK4/D1 IC50.

Test [3] relates to Phospho-Rb Ser807/811 in OVCAR3 cells. As to the kind of experiment: OVCAR3 Phospho-Rb Ser807/811 HTRF assay. The following applies: Homo sapiens, OVCAR-3, 1 h, OVCAR3 cells, Phospho-Rb Ser807/811 HTRF, 1 hour incubation; read-out: pRb-OVCAR3 IC50. The procedure: Cells were trypsinized and resuspended in 1 mM hydroxyurea (Sigma; H8627), 90% RPMI and 10% fetal bovine serum. […] Dose response curve normalized to DMSO control was plotted using four-parameter logistic model for IC50 calculation.
For orientation: TR-FRET usually uses a lanthanide donor and a delayed reading to cut background.

T2 sequence (P11802 whole entry, the tested form may be a part): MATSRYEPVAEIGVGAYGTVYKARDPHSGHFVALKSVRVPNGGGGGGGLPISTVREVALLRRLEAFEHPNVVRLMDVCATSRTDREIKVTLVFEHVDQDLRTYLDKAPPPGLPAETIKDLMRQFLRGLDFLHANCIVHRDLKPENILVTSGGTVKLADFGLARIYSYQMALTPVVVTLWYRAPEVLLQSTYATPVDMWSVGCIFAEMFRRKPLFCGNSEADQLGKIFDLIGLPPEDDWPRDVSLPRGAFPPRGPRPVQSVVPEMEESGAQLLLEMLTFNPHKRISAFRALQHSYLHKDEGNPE
T2 sequence (P24385 whole entry partner, the tested form may be a part): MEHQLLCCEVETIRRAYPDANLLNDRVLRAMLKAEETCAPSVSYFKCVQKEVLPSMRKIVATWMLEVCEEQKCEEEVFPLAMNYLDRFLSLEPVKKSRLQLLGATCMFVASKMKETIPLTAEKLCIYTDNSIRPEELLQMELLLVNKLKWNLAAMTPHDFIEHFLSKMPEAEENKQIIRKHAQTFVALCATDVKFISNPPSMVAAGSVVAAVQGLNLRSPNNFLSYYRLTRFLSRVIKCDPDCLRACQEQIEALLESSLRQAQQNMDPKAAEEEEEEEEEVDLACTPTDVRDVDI

In the case of `COc1cc(O)c(C=O)c(OCC(=O)Nc2cc([C@H]3CC[C@@H](OC(=O)NCC4CCC4)C3)[nH]n2)c1` [Compound 178], the IC50 is 2.08 nM in test [1], 5600 nM in test [2] and 54.1 nM in test [3].
For `COc1cc(O)c(C=O)c(OCC(=O)Nc2cc([C@H]3CC[C@@H](OC(=O)NCC4COC4)C3)[nH]n2)c1` [Compound 179] the same measures were 14.1 nM, over 10000 nM and 115 nM.
Consider `CCN(CC)C(=O)O[C@@H]1CC[C@H](c2cc(NC(=O)COc3cc(OC)cc(O)c3C=O)n[nH]2)C1` [Compound 180], for which the figures for the IC50 in test [1], in test [2] and in test [3] were 2.68 nM, 1580 nM and 23.5 nM, respectively.
For `CCCCNC(=O)O[C@@H]1CC[C@H](c2cc(NC(=O)COc3cc(OC)cc(O)c3C=O)n[nH]2)C1` [Compound 181] the same measures were 1.18 nM, 5000 nM and 27.9 nM.
For `CCCNC(=O)O[C@H]1C[C@@H](c2cc(NC(=O)COc3cc(OC)cc(O)c3C=O)n[nH]2)C1` [Compound 182, (1s,3s)-3-(3-(2-(2-formyl-3-hydroxy-5-methoxyphenoxy)acetamido)-1H-pyrazol-5-yl)cyclobutyl propylcarbamate], the results for the IC50 in test [1], in test [2] and in test [3] were 6.24 nM, over 10000 nM and 66.1 nM, respectively.
For the compound `O=Cc1c(O)cc(Cl)cc1OCC(=O)Nc1cc([C@H]2CC[C@@H](OC(=O)N3C4COCC3C4)C2)[nH]n1` [Compound 183], the IC50 in test [1] was determined as 10.1 nM; in test [2], 4200 nM; in test [3], 140 nM.
For `CC[C@H](C)NC(=O)O[C@@H]1CC[C@H](c2cc(NC(=O)COc3cc(OC)cc(O)c3C=O)n[nH]2)C1` [Compound 184] the same measures were 1.5 nM, 1450 nM and 20.6 nM.
For `COc1cc(O)c(C=O)c(OCC(=O)Nc2cc([C@H]3CC[C@@H](OC(=O)NC4CN(C)C4)C3)[nH]n2)c1` [Compound 185] the same measures were 445 nM, over 10000 nM and 363 nM.
In the same order, the values of `O=Cc1c(O)cc(OC(F)F)cc1OCC(=O)Nc1cc([C@H]2CC[C@@H](OC(=O)N3C4COCC3C4)C2)[nH]n1` [Compound 186] are 22 nM, 6580 nM and 105 nM.
For the compound `COc1cc(O)c(C=O)c(OCC(=O)Nc2cc([C@H]3CC[C@@H](OC(=O)N4CC(N(C)C)C4)C3)[nH]n2)c1` [Compound 187], the IC50 in test [1] was 18.4 nM; in test [2] it was over 10000 nM; in test [3], 65.3 nM.
For `COc1cc(O)c(C=O)c(OCC(=O)Nc2cc([C@H]3CC[C@@H](OC(=O)NCCN(C)C)C3)[nH]n2)c1` [Compound 188] the same measures were 337 nM, over 10000 nM and 368 nM.
`COc1cc(O)c(C=O)c(OCC(=O)Nc2cc([C@H]3CC[C@@H](OC(=O)N4CC5CC(C4)N5C)C3)[nH]n2)c1` [Compound 189]: the results for the IC50 in test [1], in test [2] and in test [3] were 159 nM, over 10000 nM and 198 nM, respectively.
Turning to `COc1cc(O)c(C=O)c(OCC(=O)Nc2cc([C@H]3CC[C@@H](OC(=O)N4C5CC4CN(C)C5)C3)[nH]n2)c1` [Compound 190], the IC50 was determined as 8.02 nM in test [1], 4160 nM in test [2] and 35 nM in test [3].
With `COc1cc(O)c(C=O)c(OCC(=O)Nc2cc([C@H]3CC[C@@H](OC(=O)N4CC5(CCN5C)C4)C3)[nH]n2)c1` [Compound 191], the values for the IC50 in test [1], in test [2] and in test [3] were 25 nM, over 10000 nM and 127 nM, respectively.
For the compound `O=Cc1c(O)cc(F)cc1OCC(=O)Nc1cc([C@H]2CC[C@@H](OC(=O)N3C4COCC3C4)C2)[nH]n1` [Compound 192], the IC50 was determined as 24 nM in test [1], 5910 nM in test [2] and 88 nM in test [3].
Regarding `COc1cc(O)c(C=O)c(O[C@H](C)C(=O)Nc2cc([C@H]3C[C@@H](OC(=O)N4C5COCC4C5)C3)[nH]n2)c1` [Compound 193], the IC50 was 11.6 nM in test [1], over 10000 nM in test [2] and 84.7 nM in test [3].
`COc1cc(O)c(C=O)c(OCC(=O)Nc2cc([C@H]3CC[C@@H](OC(=O)N4CCN(C)CC4)C3)[nH]n2)c1` [Compound 195]: the IC50 in test [1] was determined as 9.37 nM; in test [2], 5000 nM; in test [3], 37.8 nM.
In the same order, the values of `O=Cc1c(O)cccc1OCC(=O)Nc1cc([C@H]2CC[C@@H](OC(=O)N3C4COCC3C4)C2)[nH]n1` [Compound 196] are 6.2 nM, 7360 nM and 102 nM.
For `COc1cc(O)c(C=O)c(OCC(=O)Nc2cc([C@H]3CC[C@@H](OC(=O)N4CCCCC4)C3)[nH]n2)c1` [Compound 234, (1R,3S)-3-(3-(2-(2-formyl-3-hydroxy-5-methoxyphenoxy)acetamido)-1H-pyrazol-5-yl)cyclopentyl piperidine-1-carboxylate] the same measures were 1.18 nM, 2840 nM and 14.2 nM.
For `CC(C)NC(=O)O[C@@H]1CC[C@H](c2cc(Nc3nccc4c(C=O)c(O)ccc34)n[nH]2)C1` [Compound 260, (1R,3S)-3-(3-((5-formyl-6-hydroxyisoquinolin-1-yl)amino)-1H-pyrazol-5-yl)cyclopentyl isopropylcarbamate] the same measures were 15 nM, over 10000 nM and 170 nM.
On to `CC1(NC(=O)O[C@@H]2CC[C@H](c3cc(Nc4nccc5c(C=O)c(O)ccc45)n[nH]3)C2)CC1` [Compound 261, (1R,3S)-3-(3-((5-formyl-6-hydroxyisoquinolin-1-yl)amino)-1H-pyrazol-5-yl)cyclopentyl (1-methylcyclopropyl)carbamate], for which the IC50 in test [1] came out at 4.7 nM; in test [2], 4100 nM; in test [3] it was 51 nM.
In the case of `COc1cc(O)c(C=O)c(OCC(=O)Nc2cc([C@H]3CC[C@@H](OC(=O)N4C5CCC(C5)N4C)C3)[nH]n2)c1` (stereo partly drawn) [Compound 272, (1R,3S)-3-(3-(2-(2-formyl-3-hydroxy-5-methoxyphenoxy)acetamido)-1H-pyrazol-5-yl)cyclopentyl 3-methyl-2,3-diazabicyclo[2.2.1]heptane-2-carboxylate], the IC50 in test [1] is 2.2 nM; in test [2] it was over 10000 nM; in test [3], 39.3 nM.
`COc1cc(O)c(C=O)c(OCC(=O)Nc2cc([C@H]3CC[C@@H](OC(=O)N4NC5CCC4C5)C3)[nH]n2)c1` (stereo partly drawn) [Compound 273, (1R,3S)-3-(3-(2-(2-formyl-3-hydroxy-5-methoxyphenoxy)acetamido)-1H-pyrazol-5-yl)cyclopentyl 2,3-diazabicyclo[2.2.1]heptane-2-carboxylate]: the IC50 in test [1] came out at 2.38 nM; in test [2] it was 5820 nM; in test [3], 29.5 nM.
For the compound `CCN(C)NC(=O)O[C@@H]1CC[C@H](c2cc(NC(=O)COc3cc(OC)cc(O)c3C=O)n[nH]2)C1` [Compound 274, (1R,3S)-3-(3-(2-(2-formyl-3-hydroxy-5-methoxyphenoxy)acetamido)-1H-pyrazol-5-yl)cyclopentyl 2-ethyl-2-methylhydrazine-1-carboxylate], the values for the IC50 in test [1], in test [2] and in test [3] were 3.17 nM, over 10000 nM and 54.7 nM, respectively.
